From PMC12408683 (Archives of Toxicology, 2025)
Where two headings read alike, the source gives them in different places.

Tests used:
HepG2 cells [1] = conditions: for MN formation, increase (flow cytometry): 24 h + 72 h recovery
Description: DMSO served as solvent control, while MMC was used as a positive control. […] Following the recovery time, the cells were detached, harvested by centrifugation (300 g, 5 min), and washed with PBS. […] The fluorescent dye was then activated by photolysis (60 W lightbulb, 30 cm spacing) for 20 min before addition of 9 mL PBS to remove unbound dye. […] 1.5 × 10^4 cells were analysed using the BD FACSDiva software (BD Biosciences, Heidelberg, Germany).

HepG2 cells [2] = conditions: 24 h
Description: γH2AX and p53 levels were assessed by SDS-PAGE and western blotting as reported (Fahrer et al. [2013]). To this end, 5 × 10^5 cells were seeded in 3.5-cm dishes to adhere overnight. […] Proteins were separated by SDS-PAGE followed by the transfer onto a nitrocellulose membrane using the wet blot method. The successful transfer was confirmed by Ponceau S staining of the membrane before blocking with 5% non-fat dry milk in Tris-buffered saline with Tween-20 (MP-TBS-T). Subsequently, the membrane was incubated with the respective primary antibodies overnight at 4 °C. The membranes were washed three times for 5 min with TBS-T before incubating with the respective secondary antibody coupled with horseradish peroxidase. The detection was carried out using the Western Lightning Plus-ECL reagent (Perkin Elmer, Waltham MA, USA) with the c300 chemiluminescence imager (Azure Biosystems, Dublin CA, USA). The used primary and secondary antibodies are detailed in supplementary Table S3.

[3] = test system: primary rat hepatocytes (PRH); conditions: read-out: EC50 (cell viability); 24 h
Description: The cell viability was calculated relative to the negative control (set to 100%).

female gpt delta mice = test system: female gpt delta mice; design: method as in Suzuki et al. 2012b; conditions: ref Suzuki et al. 2012b; cited from earlier work
HepG2-CYP1A2 cells [4] = assay: Alkaline comet assay (DNA strand breaks) in HepG2-CYP1A2 cells; conditions: 24 h
Description: As a positive control, tBuOOH (20 min, 200 µM) was used. Subsequently, the alkaline comet assay was performed to quantify DNA strand breaks as previously described (Haas et al. [2023b]). Per sample, at least 50 comets were counted with Comet IV software (Instem, Staffordshire, UK) using a Zeiss Axio Observer 7 microscope equipped with an Axiocam 305 mono and ZEN 3.2 software (Carl Zeiss, Jena, Germany).

HepG2-CYP1A2 cells [5] = conditions: ES 24 h + 72 h recovery; not statistically significant; concentration not given
Description: Following the recovery time, the cells were detached, harvested by centrifugation (300 g, 5 min), and washed with PBS. […] The fluorescent dye was then activated by photolysis (60 W lightbulb, 30 cm spacing) for 20 min before addition of 9 mL PBS to remove unbound dye. […] 1.5 × 10^4 cells were analysed using the BD FACSDiva software (BD Biosciences, Heidelberg, Germany). A schematic overview of the gating strategy is provided in the supporting information, Fig. 3.

HepaRG cells = test system: HepaRG cells; design: method as in Le Hegarat et al. 2014; conditions: up to 2 mM ES for 24 h; ref Le Hegarat et al. 2014; cited from earlier work
HepG2-CYP1A2 cells [6] = assay: DNA adduct quantification by UHPLC-MS/MS in HepG2-CYP1A2 cells; format: cell-based, human
Description: To this end, 6 × 10^6 cells were seeded per 10 cm dish and allowed to attach overnight. […] The pellets were washed with phosphate-buffered saline (PBS) and stored at – 20 °C until further use. DNA was isolated as described previously (Carlsson et al. [2022]) and DNA concentration as well as purity were determined with the NanoDrop ND1000 photometer (Thermo Scientific, Waltham MA, USA). As a next step, 30 µg DNA of each sample was digested overnight at 37 °C with micrococcal nuclease (Worthington, Lakewood NJ, USA) and phosphodiesterase II (Worthington, Lakewood NJ, USA) as reported (Carlsson et al. [2022]). Afterwards ^15N-E3′-N^2-dG (2 nM), ^15N-E3′-N^6-dA (0.5 nM) as well as ^15N-dG (20 µM) (Silantes, München, Germany) were added as internal standards. The isotope-labelled internal DNA adduct standards and external DNA adduct standard were synthesised as previously described (Schumacher et al. [2013]). Subsequently, the samples were incubated overnight at 37 °C with alkaline phosphatase (Sigma-Aldrich, St. Louis MO, USA), followed by precipitation of remaining proteins with ethanol and centrifugation at 20,800 g. The supernatant was narrowed down in a vacuum centrifuge (Eppendorf concentrator plus, Eppendorf, Hamburg, Germany) at 60 °C and 1400 g for 2–4 h and the resulting pellet was dissolved in 75% methanol. After another centrifugation step, the solution was transferred into glass vials with inserts.
The DNA adducts were measured via UHPLC–MS/MS with a multiple reaction method (MRM) using a UHPLC system (Agilent 1290 infinity; Agilent Technologies, Santa Clara CA, USA) consisting of a binary pump (G4220A), an autosampler (G4226A) and a column oven (G1316C). The eluent consisted of 0.1% acetic acid and UHPLC grade methanol. Injection volume was 5 μL and the flow rate was 0.2 mL/min. The gradients are shown in the supporting information, Fig. 2A, B. As a separation column, a Waters XTerraMS C18 2.5 µm (2.1 × 50 mm) was used at 35 °C. The UHPLC was coupled to the Sciex QTrap 5500 MS using a declustering potential of 91 V, an entrance potential of 10 V, a collision energy of 33 V, a collision cell entrance potential of 10 V, curtain gas of 25 psi, an ion spray voltage of 5500 V, a temperature of 550 °C, and an ion source gas of 35 psi as specific mass spectrometry parameters. Measurement was performed with an electron spray ionisation in positive mode using MRM to quantify both adducts. For further quantification of the adduct levels, a standard curve of both adducts was carried along ranging from 60 to 100,000 pM, also containing isotope-labelled standards for reference. Furthermore, the dG-content of each sample was determined via LC–MS/MS with stable isotope dilution analysis to normalise the adduct levels to the overall nucleoside content (Carlsson et al. [2022]; Stegmüller et al. [2018]). The limit of detection (LOD) and the limit of quantification (LOQ) for E3′-N^2-dG and E3′-N^6-dA are provided in supplementary Table S1. The specific compound parameters for both methods are provided in supplementary Table S2.
As benchmark response (BMR) for all concentration–response curves (adducts, micronuclei), a 2.0-fold increase vs. solvent control was used (BMC100, critical effect size = 1). The determined BMC100 and the corresponding upper and lower boundary (BMCU and BMCL, respectively) of the 90% confidence interval (CI) were used for potency comparison.

[7] = endpoint MN (FCM), BMR 2.0-fold increase, 90% CI
[8] = endpoint E3′-N^2-dG, BMR 2.0-fold increase, 90% CI, PROAST

In the case of C=CC(O)c1ccc(OC)cc1 (centres unmarked) [1′OH-ES, 1′-hydroxyestragole], the “MN formation, increase (flow cytometry)” value (HepG2 cells [1]; 25 µM 1′OH-ES) is reported as “twofold”, the “MN formation, increase (flow cytometry)” value (HepG2 cells [1]; 50 µM 1′OH-ES) is reported as 4.6 fold and the “concentrations at which clastogenicity was observed” value (HepG2 cells [1]; CBMN and MN flow assay) is reported as at least 25 µM. For the same compound, the BMC100 (HepG2 cells [1]; endpoint MN (FCM), BMR 2.0-fold increase) was 29.8 µM, the BMCL (HepG2 cells [1]; [7]) was 21.1 µM and the BMCU (HepG2 cells [1]; [7]) was 37.6 µM. For the same compound, the γH2AX increase (HepG2 cells [2]; 5 µM 1′OH-ES) was 2.2 fold, the p53 induction (HepG2 cells [2]; 50 µM 1′OH-ES) was “sevenfold” and the γH2AX induction (HepG2 cells [2]; 50 µM 1′OH-ES) was 4.8 fold. The EC50 [3] was 23 µM.
In the case of C=CCc1ccc(OC)cc1 [ES, estragole], the “dose with significant increase in mutation frequency” value (female gpt delta mice) is given as 75 mg/kg bw, the “DNA strand breaks (alkaline comet assay)” value (HepG2-CYP1A2 cells [4]; 2 mM ES, vs solvent control) is given as “small but not statistically significant increase” and the “DNA strand breaks (alkaline comet assay)” value (HepG2-CYP1A2 cells [4]; up to 2 mM ES) is given as “did not elicit an increase of DNA strand break levels”. For the same compound, the “MN formation, increase vs. solvent control (flow cytometry)” value (HepG2-CYP1A2 cells [5]) was 1.6 fold, the “DNA strand breaks (comet assay) outcome” value (HepaRG cells) was “negative outcome” and the “E3′-N^2-dG adducts, change vs maximum level” value (HepG2-CYP1A2 cells [6]; 2 mM ES (highest treatment group), 24 h) was “moderate decline”. The “E3′-N^6-dA adduct (minor DNA adduct)” value (HepG2-CYP1A2 cells [6]; any tested ES concentration (up to 2 mM), 24 h) was “neither quantifiable nor detectable”, the BMCL (HepG2-CYP1A2 cells [6]; [8]) was 18.9 µM and the BMCU (HepG2-CYP1A2 cells [6]; [8]) was 104 µM. For the same compound, the BMC100 (HepG2-CYP1A2 cells [6]; endpoint E3′-N^2-dG, BMR 2.0-fold increase, PROAST) was 63.3 µM.
